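48-hour exposure; five concentrations; linearly interpolated endpoints. GI50 marks 50% less growth. The concentration for full growth arrest is given as TGI.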

We go through seven molecules from PubChem BioAssay (NCI).

Some test systems named below: SNB-78 CNS; P388/ADR leukemia; P388 leukemia; DLD-1 colon; M19-MEL melanoma; A498 renal; MDA-N; ACHN renal; PC-3 prostate; T-47D breast.
Experiment in all cases: NCI tumour cell line growth inhibition, 48 h

As for `O=[Se]([O-])c1ccccc1.O=[Se]([O-])c1ccccc1.[OH3+].[OH3+].[Pt+2]`, the GI50 with SNB-78 CNS was 15.3 µM; in the experiment with P388/ADR leukemia it was 2.12 µM; in the experiment on P388 leukemia, 1.84 µM; with DLD-1 colon, 4.85 µM; in the experiment on M19-MEL melanoma it was 8.43 µM; in the experiment with A498 renal it was 16.5 µM. For the same molecule, the TGI is 37.5 µM in the experiment with SNB-78 CNS; 11.8 µM in the experiment on P388/ADR leukemia; 5.67 µM with P388 leukemia; 24.3 µM with DLD-1 colon; 44.8 µM in the experiment on M19-MEL melanoma; above 48.8 µM in the experiment on A498 renal.

In the case of `CSC1=Nc2ccccc2N(C)c2c1c(-c1ccccc1)nn2C`, the TGI with MDA-N is above 100 µM; in the experiment on ACHN renal, above 100 µM; with PC-3 prostate it was above 100 µM; in the experiment with T-47D breast it was 49.7 µM.

As to `N#Cc1c(NC(=S)NC(=O)c2ccccc2)nc2c(c1-c1ccccc1)CCC2`, the TGI in the experiment with MDA-N, in the experiment with ACHN renal, in the experiment with PC-3 prostate and with T-47D breast was above 100 µM in each case.

In the case of `COC1OC(=O)[C@H]2O[N+]([O-])=C(C)[C@@H]12` (some centres undefined), the TGI in the experiment on SNB-78 CNS, in the experiment on P388/ADR leukemia, in the experiment on P388 leukemia, with DLD-1 colon, with M19-MEL melanoma and with A498 renal was above 100 µM each time.

In the case of `C=CC(=O)Nc1cccc(-c2nc(SC)nc(Nc3ccccc3OC)c2C#N)c1`, the GI50 is 1.7 µM in the experiment on ACHN renal, 1.94 µM in the experiment on PC-3 prostate, 1.59 µM in the experiment with T-47D breast and 2.8 µM in the experiment on A498 renal. For the same molecule, the TGI with ACHN renal amounted to 3.32 µM; in the experiment on PC-3 prostate, 4.9 µM; in the experiment with T-47D breast, 4.34 µM; in the experiment on A498 renal it was 9.34 µM.

For the molecule `Nc1n[nH]c(=O)[nH]1`, the TGI in the experiment on SNB-78 CNS, in the experiment with P388/ADR leukemia, in the experiment with P388 leukemia, in the experiment on DLD-1 colon, in the experiment on M19-MEL melanoma and in the experiment with A498 renal was above 100 µM in each case.

`O=C1CC(=O)N(c2ccccc2)N1/C(=C/c1ccccc1)c1ccccc1`: the TGI in the experiment with MDA-N was determined as 34.3 µM; in the experiment with ACHN renal it was 89.5 µM; in the experiment on PC-3 prostate, 47.7 µM; in the experiment on T-47D breast it was 67.8 µM.
